Patent US9243002B2, “Tetracyclic heterocycle compounds and methods of use thereof for the treatment of hepatitis C” (priority 2013, dated 2016)
Like-named read-outs stand apart in the source and are kept apart here.

Columns and labels:
[1] = tested on: HCV genotype 1a replicon; assay: HCV replicon assay, genotype 1a (cell ELISA for NS3/4A); assay type: cell-based, hepatitis C virus
Experimental: (§1) Measurement of inhibition by compounds was performed using the HCV replicon system. Several different replicons encoding different HCV genotypes or mutations were used. In addition, potency measurements were made using different formats of the replicon assay, including different ways of measurements and different plating formats. See Jan M. Vrolijk et al., A replicons-based bioassay for the measurement of interferons in patients with chronic hepatitis C, 110 J. VIROLOGICAL METHODS 201 (2003); Steven S. Carroll et al., Inhibition of Hepatitis C Virus RNA Replication by 2′-Modified Nucleoside Analogs, 278 (14) J. BIOLOGICAL CHEMISTRY 11979 (2003). However, the underlying principles are common to all of these determinations, and are outlined below.
(§2) Stable neomycin phosphotransferase encoding replicons-harboring cell lines were used, so all cell lines were maintained under G418 selection prior to the assay. Potency was deteremined using a cell ELISA assay with an antibody to the replicons encoded NS3/4a protease. See Caterina Trozzi et al., In Vitro Selection and Characterization of Hepatitis C Virus Serine Protease Variants Resistant to an Active-Site Peptide Inhibitor, 77 (6) J. Virol. 3669 (2003). To initiate an assay, replicon cells were plated in the presence of a dilution series of test compound in the absence of G418. Typically, the assays were performed in a 96-well plate formate for manual operation, or a 384-well plate format for automated assay. Replicon cells and compound were incubated for 96 hours. At the end of the assay, cells were washed free of media and compound, and the cells were then lysed. RNA was quantified indirectly through detection of replicon-encoded NS3/4A protein levels, through an ELISA-based assay with an antibody specific for NS3/4A. IC50 determinations were calculated as a percentage of a DMSO control by fitting the data to a four-parameter fit function and the data obtained for genotypes 1a and 1b using this method is provided in the table below.

[2] = tested on: HCV genotype 1b replicon; assay: HCV replicon assay, genotype 1b (cell ELISA for NS3/4A); assay type: cell-based, hepatitis C virus
Experimental: as §1, §2

[3] = Hepatitis C virus, 96 h, read-out: 1a IC50 (nM), genotype 1a replicon cells, 96 hours incubation, NS3/4A ELISA
[4] = Hepatitis C virus, 96 h, read-out: 1b IC50 (nM), genotype 1b replicon cells, 96 hours incubation, NS3/4A ELISA
[5] = read-out: 1a IC50, genotype 1a replicon cells, 96 hours incubation, NS3/4A ELISA
[6] = read-out: 1b IC50, genotype 1b replicon cells, 96 hours incubation, NS3/4A ELISA

Structure (SMILES)	IC50 [1, 3]	IC50 [2, 4]	IC50 [1, 5]	IC50 [2, 6]
CNC(=O)c1c(-n2cc(C(F)(F)F)cn2)oc2cc(N(C)S(C)(=O)=O)c(-c3ccc4c(n3)-c3cc5c(F)cccc5n3CC4)cc12 [Example 33]	170 nM	23.6 nM		
CNC(=O)c1c(-n2ccccc2=O)oc2cc(N(C)S(C)(=O)=O)c(-c3ccc4c(n3)-c3cc5c(F)cccc5n3CC4)cc12 [Example 34]	5.38 nM	4.66 nM		
CNC(=O)c1c(-c2nocc2C)oc2cc(N(C)S(C)(=O)=O)c(-c3ccc4c(n3)-c3cc5c(F)cccc5n3CC4)cc12 [Example 35, 5-(11-fluoro-5,6-dihydroindolo[1,2-h][1,7]naphthyridin-2-yl)-N-methyl-2-(4-methylisoxazol-3-yl)-6-(N-methylmethylsulfonamido)benzofuran-3-carboxamide]	3.28 nM	5.19 nM		
CNC(=O)c1c(-c2cnc(C)s2)oc2cc(N(C)S(C)(=O)=O)c(-c3ccc4c(n3)-c3cc5c(F)cccc5n3CC4)cc12 [Example 36, 5-(11-fluoro-5,6-dihydroindolo[1,2-h][1,7]naphthyridin-2-yl)-N-methyl-6-(N-methylmethylsulfonamido)-2-(2-methylthiazol-5-yl)benzofuran-3-carboxamide]	10.3 nM	10.2 nM		
CNC(=O)c1c(-c2cncs2)oc2cc(N(C)S(C)(=O)=O)c(-c3ccc4c(n3)-c3cc5c(F)cccc5n3CC4)cc12 [Example 37]	9.83 nM	14.2 nM		
CCc1ncc(-c2oc3cc(N(C)S(C)(=O)=O)c(-c4ccc5c(n4)-c4cc6c(F)cccc6n4CC5)cc3c2C(=O)NC)s1 [Example 38]	21.8 nM	17 nM		
CNC(=O)c1c(-c2ccc(F)cc2)oc2cc(N(C)S(C)(=O)=O)c(-c3cc4c(cn3)CCn3c-4cc4c(F)cccc43)cc12 [Example 39, 5-(11-fluoro-5,6-dihydroindolo[2,1-a][2,6]naphthyridin-2-yl)-2-(4-fluorophenyl)-N-methyl-6-(N-methylmethylsulfonamido)benzofuran-3-carboxamide]	2.71 nM	2.83 nM		
CNC(=O)c1c(-c2ccc(C)nc2)oc2cc(N(C)S(C)(=O)=O)c(-c3cc4c(cn3)CCn3c-4cc4c(F)cccc43)cc12 [Example 40]	16.6 nM	17.1 nM		
CNC(=O)c1c(-c2ccc(F)cc2)oc2cc(N(C)S(C)(=O)=O)c(-c3cnc4c(c3)-c3cc5c(F)cccc5n3CC4)cc12 [Example 43, 5-(11-fluoro-5,6-dihydroindolo[2,1-f][1,6]naphthyridin-2-yl)-2-(4-fluorophenyl)-N-methyl-6-(N-methylmethylsulfonamido)benzofuran-3-carboxamide]	1.74 nM	3.7 nM		
CNC(=O)c1c(-c2ccc(F)cc2)oc2cc(N(C)S(C)(=O)=O)c(-c3cnc4c(n3)-c3cc5c(F)cccc5n3CC4)cc12 [Example 44, 5-(11-fluoro-5,6-dihydropyrazino[2′,3′:3,4]pyrido[1,2-a]indol-2-yl)-2-(4-fluorophenyl)-N-methyl-6-(N-methylmethylsulfonamido)benzofuran-3-carboxamide]	1.76 nM	1.87 nM		
CNC(=O)c1c(-c2ccc(F)cc2)oc2nc(N(C)S(C)(=O)=O)c(-c3ccc4c(n3)-c3cc5c(F)cccc5n3CC4)cc12 [Example 45, 5-(11-fluoro-5,6-dihydroindolo[1,2-h][1,7]naphthyridin-2-yl)-2-(4-fluorophenyl)-N-methyl-6-(N-methylmethylsulfonamido)furo[2,3-b]pyridine-3-carboxamide]	4.29 nM	8.72 nM		
CNC(=O)c1c(-c2ccc(F)cc2)nn2cc(N(C)S(C)(=O)=O)c(-c3ccc4c(n3)-c3cc5c(F)cccc5n3CC4)cc12 [Example 46, 5-(11-fluoro-5,6-dihydroindolo[1,2-h][1,7]naphthyridin-2-yl)-2-(4-fluorophenyl)-N-methyl-6-(N-methylmethylsulfonamido)pyrazolo[1,5-a]pyridine-3-carboxamide]	2.23 nM	2.4 nM		
CNC(=O)c1c2cc(-c3ccc4c(n3)-c3cc5c(F)cccc5n3CC4)c(N(C)S(C)(=O)=O)cc2nn1-c1ccc(F)cc1 [Example 47, 5-(11-fluoro-5,6-dihydroindolo[1,2-h][1,7]naphthyridin-2-yl)-2-(4-fluorophenyl)-N-methyl-6-(N-methylmethylsulfonamido)-2H-indazole-3-carboxamide]	14.5 nM	8.46 nM		
CNC(=O)c1c(-c2ccc(F)cc2)oc2cc(N(C)S(C)(=O)=O)c(-c3cc4c(nn3)CCn3c-4cc4c(F)cccc43)cc12 [Example 48, 5-(11-fluoro-5,6-dihydropyridazino[4′,3′:3,4]pyrido[1,2-a]indol-2-yl)-2-(4-fluorophenyl)-N-methyl-6-(N-methylmethylsulfonamido)benzofuran-3-carboxamide]	1.72 nM	2.64 nM		
CNC(=O)c1c(-c2ccc(F)cc2)oc2cc(N(C)S(C)(=O)=O)c(-c3ccc4c(n3)-c3cc5c(F)cccc5n3C(CO)C4)cc12 (centres unmarked) [Example 52]		2.32 nM	3.35 nM	
CNC(=O)c1c(-c2ccc(F)cc2)oc2cc(N(C)S(C)(=O)=O)c(-c3ccc4c(n3)-c3cc5c(F)cccc5n3C(CO)C4)cc12 (centres unmarked) [Example 53]			8.07 nM	4.03 nM
CNC(=O)c1c(-c2ccc(F)cc2)oc2cc(N(C)S(C)(=O)=O)c(-c3ccc4c(n3)-c3cc5c(F)cccc5n3C(CO)C4)cc12 (centres unmarked) [Example 54]			1.56 nM	2.25 nM
CNC(=O)c1c(-c2ccc(F)cc2)oc2cc(N(C)S(C)(=O)=O)c(-c3ccc4c(n3)-c3cc5c(F)cccc5n3C4CO)cc12 (centres unmarked) [Example 55]	0.971 nM	1.81 nM		
CNC(=O)c1c(-c2ccc(F)cc2F)oc2cc(N(C)S(C)(=O)=O)c(-c3ccc4c(n3)-c3cc5c(F)cccc5n3C(CS(C)(=O)=O)C4)cc12 (centres unmarked) [Example 58]		1.71 nM	1.52 nM	
CNC(=O)c1c(-c2ccc(F)cc2F)oc2cc(N(C)S(C)(=O)=O)c(-c3ccc4c(n3)-c3cc5c(F)cccc5n3C(CS(C)(=O)=O)C4)cc12 (centres unmarked) [Example 59]			5.45 nM	2.9 nM
CNC(=O)c1c(-c2ccc(F)cc2)oc2cc(N(C)S(C)(=O)=O)c(-c3ccc4c(n3)-c3cc5c(F)cccc5n3CC4C)cc12 (centres unmarked) [Example 62]	2.69 nM	2.55 nM		
CNC(=O)c1c(-c2ccc(F)cc2)oc2cc(N(C)S(C)(=O)=O)c(-c3ncc4c(n3)-c3cc5c(F)cccc5n3CC4)cc12 [Example 63, 5-(11-fluoro-5,6-dihydropyrimido[4′,5′:3,4]pyrido[1,2-a]indol-2-yl)-2-(4-fluorophenyl)-N-methyl-6-(N-methylmethylsulfonamido)benzofuran-3-carboxamide]	4.34 nM	3.28 nM		
CNC(=O)c1c(-c2ccc(F)cc2)oc2cc(N(C)S(C)(=O)=O)c(-c3cc4c(cn3)CC(C)(C)n3c-4cc4c(F)cccc43)cc12 [Example 64, 5-(11-fluoro-6,6-dimethyl-5,6-dihydroindolo[2,1-a][2,6]naphthyridin-2-yl)-2-(4-fluorophenyl)-N-methyl-6-(N-methylmethylsulfonamido)benzofuran-3-carboxamide]	23.2 nM	9.09 nM		
CNC(=O)c1c(-c2ccc(F)cc2)oc2cc(N(C)S(C)(=O)=O)c(-c3ccc4c(n3)-c3cc5c(F)cccc5n3C(CCO)C4)cc12 (centres unmarked) [Example 65, 5-(11-fluoro-6-(2-hydroxyethyl)-5,6-dihydroindolo[1,2-h][1,7]naphthyridin-2-yl)-2-(4-fluorophenyl)-N-methyl-6-(N-methylmethylsulfonamido)benzofuran-3-carboxamide]	3.62 nM	3.96 nM		
CNC(=O)c1c(-c2ccc(C)nc2)oc2cc(N(C)S(C)(=O)=O)c(-c3ccc4c(n3)-c3cc5c(F)cccc5n3C(CCN3CC(F)C3)C4)cc12 (centres unmarked) [Example 66, 5-(11-fluoro-6-(2-(3-fluoroazetidin-1-yl)ethyl)-5,6-dihydroindolo[1,2-h][1,7]naphthyridin-2-yl)-N-methyl-6-(N-methylmethylsulfonamido)-2-(6-methylpyridin-3-yl)benzofuran-3-carboxamide]			13 nM	11.4 nM
CNC(=O)c1c(-c2ccc(C)nc2)oc2cc(N(C)S(C)(=O)=O)c(-c3ccc4c(n3)-c3cc5c(F)cccc5n3C(CCN3CC(F)C3)C4)cc12 (centres unmarked) [Example 67]			12.5 nM	16.4 nM
CNC(=O)c1c(-c2ccc(C)nc2)oc2cc(N(C)S(C)(=O)=O)c(-c3ccc4c(n3)-c3cc5c(F)cccc5n3C(CCN3CC(F)C3)C4)cc12 (centres unmarked) [Example 68]			70.9 nM	60.6 nM
CNC(=O)c1c(-c2ccc(F)cc2)oc2cc(N(C)S(C)(=O)=O)c(-c3ccc4c(n3)-c3cc5c(F)cccc5n3CC(O)C4)cc12 (centres unmarked) [Example 69]	2.3 nM	2.95 nM		
